Measurements from US9890166B2, “Imidazopyrrolidine derivatives and their use in the treatment of disease” (NOVARTIS AG, priority 2013, dated 2018).

What was measured:
BRD2 (His-Brd2(60-472)) = BRD2 (His-Brd2(60-472)) (Homo sapiens (Human), UniProt P25440); experiment: TR-FRET in-vitro binding assay for BRD2; details: single determination or n ≧ 2 independent determinations, read-out: Biochemical IC50 BRD2
Summary of the method: (§1)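 Compounds were serially diluted over eight concentrations and added to wells. TR-FRET signal was then measured.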

K-562 cells = experiment: Cell growth inhibition assay (CellTiter-Glo), K-562; details: for GI50: Homo sapiens, K562, read-out: K-562 GI50; for K-562 TGI: K-562 cells, total growth inhibition, CellTiter-Glo;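 for all read-outs here: cellular ATP measured by luminescence after 4 days of exposure, 3-fold dilution series from 10 µM, DMSO vehicle-treated cells define 100%, cell-free medium wells −100%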
MV-4-11 cells = experiment: Cell growth inhibition assay (CellTiter-Glo), MV-4-11; details: for GI50: Homo sapiens, MV4-11, read-out: MV-4-11 GI50; for MV-4-11 TGI: MV-4-11 cells, total growth inhibition, CellTiter-Glo;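 for all read-outs here: cellular ATP luminescence after 4 days, 3-fold dilution series from 10 µM top dose, vehicle (0.1% DMSO) set to 100%, cell-free medium set to −100%, day 0 corrected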
BRD4 (His-Brd4(44-477)) = BRD4 (His-Brd4(44-477)) (Homo sapiens (Human), UniProt O60885); experiment: TR-FRET in-vitro binding assay for BRD4; details: single determination or n ≧ 2 independent determinations, read-out: Biochemical IC50 BRD4
Summary of the method: as §1

BRD3 (His-Brd3(20-477)) = BRD3 (His-Brd3(20-477)) (Homo sapiens (Human), UniProt Q15059); experiment: TR-FRET in-vitro binding assay for BRD3; details: single determination or n ≧ 2 independent determinations, read-out: Biochemical IC50 BRD3
Sequence of BRD3 (His-Brd3(20-477)) (Q15059 20-477): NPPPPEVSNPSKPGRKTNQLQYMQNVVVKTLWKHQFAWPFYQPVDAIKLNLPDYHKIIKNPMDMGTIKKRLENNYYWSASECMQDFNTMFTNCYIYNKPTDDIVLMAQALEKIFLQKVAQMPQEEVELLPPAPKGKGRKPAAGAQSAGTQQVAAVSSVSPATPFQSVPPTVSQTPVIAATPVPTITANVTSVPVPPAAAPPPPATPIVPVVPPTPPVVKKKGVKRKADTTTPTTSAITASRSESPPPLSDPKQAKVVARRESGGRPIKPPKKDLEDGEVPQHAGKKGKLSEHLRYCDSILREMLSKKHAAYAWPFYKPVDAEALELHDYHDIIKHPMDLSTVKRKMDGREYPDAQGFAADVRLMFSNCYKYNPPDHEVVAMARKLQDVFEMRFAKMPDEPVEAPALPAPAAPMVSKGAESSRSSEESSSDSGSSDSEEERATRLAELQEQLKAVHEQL
Summary of the method: as §1

THP-1 cells = experiment: Cell growth inhibition assay (CellTiter-Glo), THP-1; details: for GI50: Homo sapiens, THP-1, read-out: THP-1 GI50; for THP-1 TGI: THP-1 cells, total growth inhibition, CellTiter-Glo;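 for all read-outs here: viability read as cellular ATP luminescence after 4 days, 3-fold dilution series from 10 µM, DMSO vehicle-treated cells taken as 100%, cell-free medium wells as −100%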
[1] = target: CREBBP bromodomain (His-CREBBP(1081-1197)) (Homo sapiens (Human), UniProt Q92793); experiment: AlphaScreen in-vitro binding assay for CREBBP; details: single determination or n ≧ 2 independent determinations, read-out: Biochemical IC50 CREBBP
Sequence of CREBBP bromodomain (His-CREBBP(1081-1197)) (Q92793 1081-1197): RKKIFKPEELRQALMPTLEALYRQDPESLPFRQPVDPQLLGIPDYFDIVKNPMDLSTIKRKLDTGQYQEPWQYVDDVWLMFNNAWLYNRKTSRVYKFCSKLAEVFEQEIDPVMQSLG
Summary of the method: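 Reactions at 30 °C for 35 min, then Ni-chelate acceptor and streptavidin donor beads in HEPES pH 7.5, NaCl, Tween20, BSA, 60 min at room temperature. Eight-point compound series; IC50 by non-linear regression of percent inhibition.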

Sequence of BRD2 (His-Brd2(60-472)) (P25440 60-472): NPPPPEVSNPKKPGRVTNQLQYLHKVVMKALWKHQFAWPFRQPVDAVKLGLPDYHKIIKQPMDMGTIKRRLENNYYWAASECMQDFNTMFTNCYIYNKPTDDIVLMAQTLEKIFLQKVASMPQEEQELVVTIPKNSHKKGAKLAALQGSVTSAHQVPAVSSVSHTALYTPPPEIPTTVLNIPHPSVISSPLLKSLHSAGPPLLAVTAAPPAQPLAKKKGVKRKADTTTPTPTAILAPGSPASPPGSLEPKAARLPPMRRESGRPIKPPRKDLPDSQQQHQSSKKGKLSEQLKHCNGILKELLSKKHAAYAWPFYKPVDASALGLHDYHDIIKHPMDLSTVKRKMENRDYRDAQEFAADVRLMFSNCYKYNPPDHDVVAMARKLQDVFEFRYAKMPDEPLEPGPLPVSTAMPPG

Structure (SMILES)	IC50 (BRD2 (His-Brd2(60-472))) [nM]	GI50 (K-562 cells) [nM]	K-562 TGI (K-562 cells) [nM]	GI50 (MV-4-11 cells) [nM]	MV-4-11 TGI (MV-4-11 cells) [nM]	IC50 (BRD4 (His-Brd4(44-477))) [nM]	IC50 (BRD3 (His-Brd3(20-477))) [nM]	GI50 (THP-1 cells) [nM]	THP-1 TGI (THP-1 cells) [nM]	IC50 [1] [nM]
COc1ccc(-c2nc3c(n2C(C)C)[C@@H](c2ccc(Cl)cc2)N(c2cc(OC)c4nnn(C)c4c2)C3=O)cn1 [Example 114, (R)-6-(4-chlorophenyl)-1-isopropyl-5-(4-methoxy-1-methyl-1H-benzo[d][1,2,3]triazol-6-yl)-2-(6-methoxypyridin-3-yl)-5,6-dihydropyrrolo[3,4-d]imidazol-4(1H)-one]	87	268	>10000	77.7	158.5	38	100	118	300.5	12900
Cc1cc(N2C(=O)c3nc(C4CCN(CC(C)(C)C)CC4)n(C(C)C)c3C2c2ccc(Cl)cc2)cn2c(C)nnc12 (stereo not shown) [Example 104, 6-(4-chlorophenyl)-5-(3,8-dimethyl-[1,2,4]triazolo[4,3-a]pyridin-6-yl)-1-isopropyl-2-(1-neopentylpiperidin-4-yl)-5,6-dihydropyrrolo[3,4-d]imidazol-4(1H)-one]	41	53.4	>10000	8.21	18.7	24.5	33	21.2	53.95	2800
COc1ncccc1-c1nc2c(n1C(C)C)[C@@H](c1ccc(Cl)cc1)N(c1cc(C)c3nnc(C(F)F)n3c1)C2=O [Example 151, (R)-6-(4-chlorophenyl)-5-(3-(difluoromethyl)-8-methyl-[1,2,4]triazolo[4,3-a]pyridin-6-yl)-1-isopropyl-2-(2-methoxypyridin-3-yl)-5,6-dihydropyrrolo[3,4-d]imidazol-4(1H)-one]	14	24.1	>10000	3.73	8.015	11	14	6.85	17.45	13900
Cc1cc(N2C(=O)c3nc(C4CCOCC4)n(C(C)C)c3C2c2ccc(Cl)cc2)cc2c1nnn2C (stereo not shown) [Example 80, 6-(4-chlorophenyl)-5-(1,4-dimethyl-1H-benzo[d][1,2,3]triazol-6-yl)-1-isopropyl-2-(tetrahydro-2H-pyran-4-yl)-5,6-dihydropyrrolo[3,4-d]imidazol-4(1H)-one]	17	28.8	>10000	4.14	9.45	13	12	5.53	15.4	1450
COc1ncccc1-c1nc2c([nH]1)C(c1ccc(Cl)cc1)N(c1cc(C)c3nnc(C(F)F)n3c1)C2=O (stereo not shown) [Example 140, 6-(4-chlorophenyl)-5-(3-(difluoromethyl)-8-methyl-[1,2,4]triazolo[4,3-a]pyridin-6-yl)-2-(2-methoxypyridin-3-yl)-5,6-dihydropyrrolo[3,4-d]imidazol-4(1H)-one]	42	180	>10000	38.4	66.8	29	28	63.6	124.5	> 37000
COC(=O)N1CCC(c2nc3c(n2C(C)C)C(c2ccc(Cl)cc2)N(c2cc(C)c4nnc(C)n4c2)C3=O)CC1 (stereo not shown) [Example 76, methyl 4-(6-(4-chlorophenyl)-5-(3,8-dimethyl-[1,2,4]triazolo[4,3-a]pyridin-6-yl)-1-isopropyl-4-oxo-1,4,5,6-tetrahydropyrrolo[3,4-d]imidazol-2-yl)piperidine-1-carboxylate]	97	314	>10000	23.3	38.8	54	64	95.7	266	2050
Cc1cc(N2C(=O)c3nc(C4=CCN(C(=O)OC(C)C)CC4)n(C(C)C)c3C2c2ccc(Cl)cc2)cn2c(C)nnc12 (stereo not shown) [Example 71, isopropyl 4-(6-(4-chlorophenyl)-5-(3,8-dimethyl-[1,2,4]triazolo[4,3-a]pyridin-6-yl)-1-isopropyl-4-oxo-1,4,5,6-tetrahydropyrrolo[3,4-d]imidazol-2-yl)-5,6-dihydropyridine-1(2H)-carboxylate]	33	228	>10000	31.3	44.5	18.5	18	63.7	138.5	4300
COc1ccc(-c2nc3c(n2C(C)C)C(c2ccc(Cl)cc2)N(c2cc(OC)c4nnn(C)c4c2)C3=O)cn1 (stereo not shown) [Example 113, 6-(4-chlorophenyl)-1-isopropyl-5-(4-methoxy-1-methyl-1H-benzo[d][1,2,3]triazol-6-yl)-2-(6-methoxypyridin-3-yl)-5,6-dihydropyrrolo[3,4-d]imidazol-4(1H)-one]	100	358	>10000	125	186	200	102	171	359.5	> 37000
COc1ccc(-c2nc3c(n2C(C)C)C(c2ccc(Cl)cc2)N(c2cc(C)c4onc(C)c4c2)C3=O)cn1 (stereo not shown) [Example 35, 6-(4-chlorophenyl)-5-(3,7-dimethylbenzo[d]isoxazol-5-yl)-1-isopropyl-2-(6-methoxypyridin-3-yl)-5,6-dihydropyrrolo[3,4-d]imidazol-4(1H)-one]	43	946	>10000	226	384	21	35	289	462	> 37000
COc1ncccc1-c1nc2c(n1C(C)C)[C@@H](c1ccc(Cl)cc1)N(c1cc(C)c3nnn(C)c3n1)C2=O [Example 158, (R)-6-(4-chlorophenyl)-5-(3,7-dimethyl-3H-[1,2,3]triazolo[4,5-b]pyridin-5-yl)-1-isopropyl-2-(2-methoxypyridin-3-yl)-5,6-dihydropyrrolo[3,4-d]imidazol-4(1H)-one]	16	8.73	>10000	1.64	3.29	< 11	< 11	2	5.065	> 37000
Cc1cc(N2C(=O)c3nc(C)n(C(C)C)c3[C@H]2c2ccc(Cl)cc2)cc2c1nnn2C [Example 109, (R)-6-(4-chlorophenyl)-5-(3,7-dimethyl-3H-benzo[d][1,2,3]triazol-5-yl)-1-isopropyl-2-methyl-5,6-dihydropyrrolo[3,4-d]imidazol-4(1H)-one]	38	52	>10000	6.29	15.35	22	19	11.9	35.8	4350
COc1ncccc1-c1nc2c([nH]1)[C@@H](c1ccc(Cl)cc1)N(c1cc(C)c3nnc(C(F)F)n3c1)C2=O [Example 153, (R)-6-(4-chlorophenyl)-5-(3-(difluoromethyl)-8-methyl-[1,2,4]triazolo[4,3-a]pyridin-6-yl)-2-(2-methoxypyridin-3-yl)-5,6-dihydropyrrolo[3,4-d]imidazol-4(1H)-one]	25	95	>10000	25.6	38.6	13	23	18.4	44.3	28900
Cc1cc(N2C(=O)c3nc(C4=CC(C)(C)NC(C)(C)C4)n(C(C)C)c3C2c2ccc(Cl)cc2)cn2c(CF)nnc12 (stereo not shown) [Example 90, 6-(4-chlorophenyl)-5-(3-(fluoromethyl)-8-methyl-[1,2,4]triazolo[4,3-a]pyridin-6-yl)-1-isopropyl-2-(2,2,6,6-tetramethyl-1,2,3,6-tetrahydropyridin-4-yl)-5,6-dihydropyrrolo[3,4-d]imidazol-4(1H)-one]	67	270	>10000	16.2	31.75	30	37	82.8	271	13100
